Test system: dextran sulfate salt (DSS) induced chronic ulcerative colitis in male Swiss-Webster mice
Test: Olsalazine on dextran sulfate salt (DSS) induced chronic ulcerative colitis in mice
Assay type: in vivo
Conditions: for survival to necropsy day: 3% DSS days 0-14, 15% in disease controls; for mean body weight loss at study end: 3% DSS, disease control lost 3.90 g; for colon content score (mean, scale 0-3) / mean colon length / inhibition of decreased colon length: day 14; for colon content score (mean, scale 0-3): disease control mean 2.67; for mean colon length: normal 10.60, disease control 6.33; for inhibition of decreased colon length: vs disease control
Method: A study was conducted to determine the effect of Olsalazine on dextran sulfate salt (DSS) induced chronic ulcerative colitis in male Swiss-Webster mice. Groups of 20 male Swiss-Webster mice were allowed ad libitum access to Olsalazine qd beginning on day −3 and then continued daily (qd) or every two days (q2d) starting on day 0 and continuing through day 14. Dipentum®, Olsalazine Sodium is a sodium salt of salicylate, disodium 3,3′-azobis(6-hydroxybenzoate) and when exposed to colonic bacteria converts to mesalamine. In this animal model, male Swiss-Webster mice are exposed to DSS (3% days 0-14) to induce inflammation and gland loss with erosion in the colon.
Dextran sulfate, molecular weight 40-50,000 (sodium salt, Spectrum Chemicals, New Brunswick, N.J., Lot#RA1107) was stored at room temperature until added to appropriate volumes of tap water to prepare sufficient 3% DSS solutions. Prepared solutions were stored at 4° C. and added to water bottles daily. Every 3rd day, water in all bottles was discarded and replaced with fresh DSS preparations or tap water (normal controls). Dipentum® (Olsalazine Sodium) was received from the sponsor in hard gelatin capsule form. Capsules were received and each capsule contained 250 mg. On study day −3, 51 capsules were opened (˜12.75 grams) and the contents of each were consolidated into a labeled vial. Appropriate amounts of the beige-orange compound was then added to 250 ml water bottles so that each bottle would contain ˜0.83 mg/ml Olsalazine suspension in the water.
• Male Swiss-Webster mice weighing approximately 22-29 grams on day (−)3 were obtained from Harlan, Inc (Indianapolis, Ind.). Animals were identified by color-coded dots at the base of the tail delineating group and animal number. After randomization, all cages were labeled with protocol number, group and animal numbers with appropriate color-coding.
Animals (5/group/normal control, 20/group for diseased treated), housed 5/cage, were given 3.0% DSS in their water from test days 0-14. Olsalazine treatment was initiated on day −3 and continued daily through day 14, or on days −3, −2, −1, 0, 2, 4, 6, 8, 10, 12, and 14 for the q2d group. Animals were terminated on day 14. • Experimental groups were as follows:
Animals were weighed on study days −3 to 14. On day 14 mice were weighed, euthanized, and the entire colon was removed and the length determined. The colons were scored for gross changes using the following criteria:
0=normal, no blood observed
2=semi-solid to fluid stool
3=semi-solid with definite evidence of blood, bloody fluid or no content
Only animals that survived to study termination were included in the analysis of terminal colon lengths and scores.
For each surviving animal, the entire colon (proximal and distal) was trimmed into 8 equally spaced pieces for processing and embedding. Sections were stained with hemotoxylin and eosin (H&E). For each colon section, submucosal edema was quantified by measuring the distance (mm) from the muscularis mucosa to the internal border of the outer muscle layer in representative areas of edema. The extent of inflammation (foamy macrophages, lymphocytes and polymorphonuclear cell infiltrate) was assigned severity scores according to the following ranking:
The parameters reflecting epithelial cell loss/damage were scored individually using a percent area involved scoring method:
Parameters that were scored using the above percent involvement scale include: • 1) Colon glandular loss—includes crypt epithelial as well as remaining gland epithelial loss. • 2) Colon erosion—reflects loss of surface epithelium and generally is associated with mucosal hemorrhage (seen clinically and at necropsy).
Mucosal epithelial hyperplasia (basophilia, mitotic figures, multi-layered on basement membranes, absence of goblet cells) was scored 0-5 based on the following criteria […]

[1] = Olsalazine ad libitum, q2d, compared to disease controls
[2] = Olsalazine ad libitum, q2d, histopathology day 14, non significant
[3] = Olsalazine ad libitum, qd, histopathology day 14
[4] = Olsalazine ad libitum, qd, histopathology day 14, non significant
[5] = Olsalazine ad libitum, qd, histopathology day 14, significant

O=C([O-])c1cc(N=Nc2ccc(O)c(C(=O)[O-])c2)ccc1O.[Na+].[Na+] [Olsalazine, disodium 3,3′-azobis(6-hydroxybenzoate)]
survival to necropsy day (Olsalazine ad libitum in water (~0.83 mg/ml), every day (qd), day -3 to 14): 75% | survival to necropsy day (Olsalazine ad libitum, every other day (q2d): days -3,-2,-1,0,2,...14): 50% | mean body weight loss at study end (Olsalazine ad libitum, q2d): 3.10 g | inhibition of mean hyperplasia score [1]: 11% | inhibition of mucosal thickness [1]: 17% | colon content score (mean, scale 0-3) (Olsalazine ad libitum, q2d): 2.70 | mean colon length (Olsalazine ad libitum, q2d): 7.1 cm | inhibition of decreased colon length (Olsalazine ad libitum, q2d): 18% | inhibition of colon gland loss (Olsalazine ad libitum, q2d, histopathology day 14): 32% | inhibition of colon edema [2]: 21% | inhibition of colon erosion [2]: 27% | inhibition of colon inflammation [2]: 27% | inhibition of sum colon histopathologic score [2]: 29% | mean body weight loss at study end (Olsalazine ad libitum, qd): 4.78 g | inhibition of mean hyperplasia score (Olsalazine ad libitum, qd, compared to disease control): 16% | colon content score (mean, scale 0-3) (Olsalazine ad libitum, qd): 2.33 | mean colon length (Olsalazine ad libitum, qd): 7.33 cm | inhibition of decreased colon length (Olsalazine ad libitum, qd): 23% | inhibition of colon erosion [3]: 32% | inhibition of increase of mucosal thickness [3]: 32% | inhibition of colon edema [4]: 22% | inhibition of sum colon histopathologic score [4]: 35% | inhibition of colon gland loss [5]: 32% | inhibition of colon inflammation [5]: 33%

Reference: US20100015111A1, “Methods And Kits For The Treatment Inhibition, And Maintenance Of Gastrointestinal Disorders” (priority 2008, published 2010)
